Entries after “also recorded” stand apart in the source; their conditions may differ.
Key:
[1] = Calcaemic effects in mice at 0.3 μg/kg; format: in vivo; settings: for Calcaemic activity: blood calcium in percentage over that induced by 1,25D: ip every two days for 21 days, 0.3 μg/kg (table title prints 0.3 mg/kg); for Hypercalcemia (serum calcium versus control): 0.3 μg/Kg ip every 2 days for 21 days
Method: FIG. 8. […] 1,25D and the various analogues were injected intraperitoneally every 2 days for 21 days at a dose of 0.3 μg/Kg. After treatment the calcium levels in the serum were evaluated and the values were represented as mean±SD in […].
(§1) Calcium mobilization of analogues was determined in 28 male CD-1 mice (6-8 weeks old). 6 Groups of 4 mice each were established, which mice were intraperitoneally (ip) injected with 0.3 μg/kg weight of each analogue or 1,25D dissolved in sesame oil every two days for 3 weeks. A seventh group of 4 mice treated with the carrier (sesame oil) served as controls. Calcium levels in blood were determined by QuantiChomCalciumAssay Kit (BioAssaySystems, Hayward, Calif., USA). In addition, a dose-response assay was performed to assess the effect of administration of the analogues PG-403 and PG136p and hormone (1,25D) at different doses on calcium levels. This assay was performed in male mice (5 mice per group), and the doses used were: 0.1, 0.5, 1, and 5 μg/kg weight of each analogue or 1,25D, i.p. administered every two days for 21 days. In addition, a control group (mice treated with sesame oil) was used.

[2] = Body weight of mice in the dose-response assay; format: in vivo
Method: FIG. 10. […] 1,25D (dose of 0.3 μg/kg) and analogues (doses of 0.1, 0.5, 1 and 5 μg/kg) were injected intraperitoneally every 2 days for 21 days. Animals were weighed every two days during treatment. The values were represented as mean±SD in […].
In this experiment, also the weight of the animals was quantified to determine whether there was any modification throughout the treatment.

[3] = Dose-response assay of serum calcium in mice; format: in vivo
Method: FIG. 9. […] 1,25D (dose of 0.3 μg/kg) and analogues (doses of 0.1, 0.5, 1 and 5 μg/kg) were injected intraperitoneally every 2 days for 21 days. After treatment the calcium levels in the serum were evaluated and the values were represented as mean±SD in […].
as §1

[4] = system: PC-3 cells; assay: MTT proliferation assay, PC-3; settings: 10^−7 M, 48 hours, 100% control cells
Method: Proliferation assay in the PC-3 cell line of human prostate adenocarcinoma. […] The values were plotted in the graphs as mean±SD. As proliferation value, 100% was considered the normal growth of PC-3 cells treated with the carrier in the control.
(§2) The cells were cultured in 90-mm plates in essential culture medium DMEM, supplemented with 10% bovine foetal serum free of steroid hormones, 100 U/ml penicillin, 100 μg/ml streptomycin and 2 mM non-essential amino acids (L-glutamine) at 37° C. in a humid atmosphere O2/CO2 (95/5%).
(§3) The first is an indirect method for determining living cells, wherein the yellow water soluble MTT is reduced in mitochondria, thus generating a purple insoluble product (formazan). […] After this time, the culture medium was removed and 500 μl of dimethylsulfoxide (DMSO) was added to each well to solubilise the formazan incorporated by the cells.

[5] = system: SKOV-3 cells; assay: MTT proliferation assay, SKOV-3; settings: 10^−7 M, 48 hours, 100% control cells
Method: Proliferation assay in the SKOV-3 cell line of human ovary adenocarcinoma. […] The values were plotted in the graphs as mean±SD. As proliferation value, 100% was considered the normal growth of SKOV-3 cells treated with the carrier in the control.
as §2, §3

[6] = system: 24-hydroxylase promoter, CYP24A1 (pCYP24A1-Luc); assay: Transactivation reporter assay (pCYP24A1-Luc) in MCF-7 cells; settings: for EC50: Homo sapiens, MCF7, 24 h, read-out: Transcriptional activity EC50; for Transcriptional activity % relative to 1,25D (100%): MCF-7 cells, pCYP24A1-Luc
Method: MCF-7 cells were transfected with the reporter vector of 24-hydroxylase (pCYP24A1-Luc vector) for 24 hours. […] The experiments were performed at least twice. The error bars represent the standard deviation (SD).

[7] = system: MCF-7 cells; assay: 3D cell culture on matrigel (spheroid size), MCF-7; format: cell-based, human; settings: for Cell proliferation percentage MCF-7 3D: 10^−7 M, matrigel spheroids, 100% control cells
Method: FIG. 7. MCF-7 cells were shown for 10 days on a matrigel bed until they formed a 3D cellular structure. […] After treatment, the spheroids were stained with DAPI (4′,6-diamino-2-phenylindole) for 1 hour and photographed under an inverted microscope with ultraviolet light. The size of these spheroids was measured and the values were represented as mean±SD in relative units. […] Those cells treated with the carrier were considered as the control value.
For 3D cell culture, a cushion of 200 μl of Matrigel (BD Biosciences) was used in each of the wells of multi-well plates of 24 wells. They were incubated at 37° C. for 20 minutes for their solidification and subsequently the cell suspension (5×10^3 cells per 100 μl volume of medium) was loaded onto the matrigel solidified and another incubation at 37° C. was performed for 30 minutes so that the cells penetrated properly on the matrigel base. 500 μl of DMEM medium were added to each well, and the cells were maintained in culture for 10 days. At the end of this time, the cells were started to be treated with each of the 5 analogues used and 1,25D.

[8] = system: MCF-7 cells; assay: MTT proliferation assay, MCF-7; settings: 10^−7 M, 48 hours, 100% control cells
Method: Proliferation assay in the MCF-7 cell line of human breast adenocarcinoma. […] The values were plotted in the graphs as mean±SD. As proliferation value, 100% was considered the normal growth of MCF-7 cells treated with the carrier in the control.
as §2
Cell proliferation/toxicity in breast cancer lines was assessed by both incorporation assays of 3-(4,5-dimethylthiazol-2-yl)-2,5-difeniltetrazolium (MTT) bromide and cell culture in three dimensions (3D).
as §3

[9] = system: HaCaT cells; assay: MTT proliferation assay, HaCaT; settings: 10^−7 M, 48 hours, 100% control cells
Method: Proliferation assay in the HaCaT cell line of human keratinocytes. […] The values were plotted in the graphs as mean±SD. As proliferation value, 100% was considered the normal growth of HaCaT cells treated with the carrier in the control.
as §2, §3

[10] = target: T1, vitamin D receptor (VDR) (Homo sapiens, UniProt P11473); assay: Competitive binding to vitamin D receptor (Polarscreen VDR competitor assay, fluorescence polarisation); settings: for Binding to VDR % relative to 1,25D (100%): activity relative to natural hormone 1,25D normalised at 100%; for IC50: competitive displacement, 10^−11 to 10^−5 M
T1 construct: purchased Invitrogen
T1 sequence (P11473 1-427): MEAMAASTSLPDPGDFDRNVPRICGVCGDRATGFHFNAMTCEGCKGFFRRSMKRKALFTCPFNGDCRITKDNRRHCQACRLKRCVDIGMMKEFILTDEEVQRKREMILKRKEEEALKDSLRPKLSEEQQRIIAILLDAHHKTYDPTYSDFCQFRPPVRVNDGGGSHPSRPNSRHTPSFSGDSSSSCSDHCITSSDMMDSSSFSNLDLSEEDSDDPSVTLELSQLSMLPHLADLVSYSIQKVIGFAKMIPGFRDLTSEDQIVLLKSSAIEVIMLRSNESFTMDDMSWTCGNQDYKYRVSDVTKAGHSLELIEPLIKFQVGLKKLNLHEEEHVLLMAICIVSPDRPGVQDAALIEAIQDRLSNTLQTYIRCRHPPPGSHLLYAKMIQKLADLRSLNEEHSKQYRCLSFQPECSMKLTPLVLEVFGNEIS
Method: FIG. 1. […] The values represent the mean of at least two experiments.
Polarised fluorescence was determined in 384-well black plates for 200 ms/well using a Mithras LB 940 device (Berthold Technologies).

| Structure (SMILES) | Blood calcium ([1]; 0.3 μg/kg ip every two days for 3 weeks, carrier 11.9±0.7) | Calcaemic activity: blood calcium in percentage over that induced by 1,25D [1] | Body weight, 1,25D ([2]; mice, 0.5 μg/kg weight ip every two days for 21 days) | Serum calcium versus controls, 1,25D ([3]; 0.5 μg/kg weight ip every two days for 21 days) | Cell proliferation percentage PC-3 2D [4] | Cell proliferation percentage SKOV-3 2D [5] | EC50 [6] | Transcriptional activity % relative to 1,25D (100%) [6] | Cell proliferation percentage MCF-7 3D [7] | Cell proliferation percentage MCF-7 2D [8] | Cell proliferation percentage HaCaT 2D [9] | Hypercalcemia (serum calcium versus control) [1] | Binding to VDR % relative to 1,25D (100%) [10] | IC50 [10] | Three-dimensional growth of MCF-7 spheroids (in words) ([7]; 10^−7 M for 7 days) | Body weight versus control animals, analogues ([2]; mice, 0.1, 0.5, 1 and 5 μg/kg ip every 2 days for 21 days) | Serum calcium versus control animals (placebo) ([3]; 5 μg/kg weight ip every two days for 21 days) | Serum calcium versus controls, analogues ([3]; doses 0.1, 0.5, 1 and 5 μg/kg ip every 2 days for 21 days) |
| --- | --- | --- | --- | --- | --- | --- | --- | --- | --- | --- | --- | --- | --- | --- | --- | --- | --- | --- |
| C=C1/C(=C\C=C2/CCC[C@]3(C)[C@@H]([C@H](C)CCCC(C)(C)O)CC[C@@H]23)C[C@@H](O)C[C@@H]1O [1,25D, 1,25-dihydroxyvitamin D3, reference compound] | 14.7 ± 0.58 mg/dL | 100% | produced a significant decrease in the weight of the animals | induces a significant increase in serum calcium |  |  |  |  |  |  |  |  |  |  |  |  |  |  |
| C=C1/C(=C\C=C(/CCCC)c2cccc(CCCCCC(C)(C)O)c2)C[C@@H](O)C[C@@H]1O [PG-128, (1R,3S,Z)-5-((E)-3-(3-(6-hydroxy-6-methylheptyl)phenyl)hept-2-enyliden)-4-methylenecyclohexane-1,3-diol] |  | 34% |  |  | 84% | 81% | 0.01 µM | 20% | 84% | 74% | 71% | does not produce hypercalcemia | 12% | 0.0136 µM |  |  |  |  |
| C=C1/C(=C\C=C(/CCC)c2cccc(CCCCCC(C)(C)O)c2)C[C@@H](O)C[C@@H]1O [PG-152, (1R,3S,Z)-5-((E)-3-(3-(6-hydroxy-6-methylheptyl)phenyl)hex-2-enyliden)-4-methylenecyclohexane-1,3-diol] |  | 41% |  |  | 83% | 82% | 0.00927 µM | 21% | 74% | 69% | 71% | does not produce hypercalcemia | 10% | 0.0176 µM |  |  |  |  |
| C=C1/C(=C\C=C(/CCCCCC)c2cccc(CCCCCC(C)(C)O)c2)C[C@@H](O)C[C@@H]1O [PG-156, (1R,3S,Z)-5-((E)-3-(3-(6-hydroxy-6-methylheptyl)phenyl)non-2-enyliden)-4-methylenecyclohexane-1,3-diol] |  | 0% |  |  | 80% | 76% | 0.0114 µM | 17% | 79% | 78% | 74% | does not produce hypercalcemia | 9% | 0.0184 µM |  |  |  |  |
| C=C1/C(=C\C=C(/CCCCCC(C)(C)O)c2cccc(CCCCCC(C)(C)O)c2)C[C@@H](O)C[C@@H]1O [PG-385, (1R,3S,Z)-5-((E)-9-hydroxy-3-(3-(6-hydroxy-6-methylheptyl)phenyl)-9-methyldec-2-enyliden)-4-methylenecyclohexane-1,3-diol] |  | 9% |  |  |  |  | 0.0056 µM | 35% |  | 69% |  | does not produce hypercalcemia |  |  |  |  |  |  |
| C=C1/C(=C\C=C(/CCCCCCC)c2cccc(CCCCCC(C)(C)O)c2)C[C@@H](O)C[C@@H]1O [PG-403, (1R,3S,Z)-5-((E)-3-(3-(6-hydroxy-6-methylheptyl)phenyl)dec-2-enyliden)-4-methylenecyclohexane-1,3-diol] |  | 0% |  |  | 79% | 83% | 0.0346 µM | 6% | 55% | 69% | 71% | does not produce hypercalcemia | 7% | 0.0235 µM | inhibit the three-dimensional growth, similarly to 1,25D | does not change the body weight; also recorded: did not significantly affect the body weight | did not significantly raise serum calcium | does not produce hypercalcemia; also recorded: None of the two analogues tested (PG136p and PG-403) induces increased serum calcium |
| C=C1/C(=C\C=C\c2cc(CCCCCC(C)(C)O)cc(CCCCCC(C)(C)O)c2)C[C@@H](O)C[C@@H]1O [PG-433, (1R,3S,Z)-5-((E)-3-(3.5-(6-hydroxy-6-methylheptyl)phenyl)allyliden)-4-methylenecyclohexane-1,3-diol] |  | 8% |  |  |  |  | 0.00295 µM | 67% |  | 69% |  | does not produce hypercalcemia |  |  |  |  |  |  |

From patent US9663429B2, “Vitamin D analogues of pharmaceutical interest” (UNIVERSIDADE DE SANTIAGO DE COMPOSTELA, priority 2013, dated 2017)
